Measurements taken from ChEMBL document CHEMBL5344429, “1,3-Substituted β-Carboline Derivatives as Potent Chemotherapy for the Treatment of Cystic Echinococcosis” (J Med Chem, 2023).
Calls of active or inactive are those of the source. The calls are words filed in the database; no cut-off is given here.

Legend:
[1] = test system: Echinococcus granulosus; test: Parasiticidal activity against Echinococcus granulosus protoscolices assessed as increase in death rate at 5 uM incubated for 4 days by darker staining-based light microscopy; type: functional, organism-based; conditions: time 4.0 day
[2] = test system: Echinococcus granulosus; test: Parasiticidal activity against Echinococcus granulosus protoscolices assessed as degeneration of outer skin at 5 uM incubated for 4 days by scanning electron microscopy; type: functional, organism-based; conditions: time 4.0 day
[3] = Oral bioavailability in Wistar rat at 50 mg/kg, […] by HPLC analysis; type: ADME, organism-based; conditions: in vivo
[4] = test system: Echinococcus granulosus; test: Parasiticidal activity against Echinococcus granulosus protoscolices assessed as lethal effect incubated for 4 days by eosin exclusion test; type: functional, organism-based; conditions: dose 0.5-5 µM, time 4.0 day
[5] = test system: Echinococcus granulosus; test: Parasiticidal activity against Echinococcus granulosus assessed as collapse of germinal layers at 100 uM incubated for 4 days by scanning electron microscopy; type: functional, organism-based; conditions: time 4.0 day
[6] = test system: Echinococcus granulosus; test: Parasiticidal activity against Echinococcus granulosus protoscolices assessed as loss of suckers at 5 uM incubated for 4 days by scanning electron microscopy; type: functional; conditions: time 4 day
[7] = test system: Echinococcus granulosus; test: Parasiticidal activity against Echinococcus granulosus protoscolices assessed as partial vacuolar change at 5 uM incubated for 4 days by scanning electron microscopy analysis; type: functional, organism-based; conditions: time 4.0 day
[8] = test system: Echinococcus granulosus; test: Parasiticidal activity against Echinococcus granulosus protoscolices assessed as loss of hooks at 5 uM incubated for 4 days by scanning electron microscopy; type: functional, organism-based; conditions: time 4.0 day
[9] = test system: Echinococcus granulosus; test: Parasiticidal activity against Echinococcus granulosus protoscolices assessed as change in ultrastructure at 5 uM incubated for 4 days by scanning electron microscopy; type: functional, organism-based; conditions: time 4.0 day
[10] = test system: Echinococcus granulosus; test: Parasiticidal activity against Echinococcus granulosus cyst assessed as seperation from cuticle at 100 uM incubated for 4 days by scanning electron microscopy; type: functional, organism-based; conditions: time 4.0 day
[11] = Cmax in Wistar rat at 5 mg/kg, iv by HPLC analysis; type: ADME, organism-based; set-up: dose 5 mg/kg, route iv; conditions: in vivo
[12] = test system: Echinococcus granulosus; test: Parasiticidal activity against Echinococcus granulosus protoscolices assessed as lethal effect at 0.5 to 5 uM by eosin exclusion test; type: functional, organism-based; conditions: dose 0.5-5 µM, TDE = time-dependent effect
[13] = test system: Echinococcus granulosus; test: Parasiticidal activity against Echinococcus granulosus protoscolices […] by eosin exclusion test; type: functional; conditions: 1152 h, time 48 day
[14] = AUC (0 to infinity) in Wistar rat at 5 mg/kg, iv by HPLC analysis; type: ADME, organism-based; set-up: dose 5 mg/kg, route iv; conditions: in vivo
[15] = test system: Echinococcus granulosus; test: Potency index, ratio of Harmine LC50 to test compound LC50 for Parasiticidal activity against Echinococcus granulosus protoscolices; type: functional
[16] = test system: Echinococcus granulosus; test: Parasiticidal activity against Echinococcus granulosus protoscolices assessed as death rate at 5 uM incubated for 4 days by eosin exclusion test; type: functional; conditions: time 4 day
[17] = test system: Echinococcus granulosus; test: Parasiticidal activity against Echinococcus granulosus protoscolices assessed as appearance of blurred marginal structure at 5 uM incubated for 4 days by scanning electron microscopy analysis; type: functional, organism-based; conditions: time 4.0 day
[18] = test system: Echinococcus granulosus; test: Parasiticidal activity against Echinococcus granulosus protoscolices assessed as appearance of body shrank at 5 uM incubated for 4 days by scanning electron microscopy analysis; type: functional, organism-based; conditions: time 4.0 day
[19] = test system: Echinococcus granulosus; test: Parasiticidal activity against Echinococcus granulosus protoscolices assessed as appearance of rostellum hooks fall off at 5 uM incubated for 4 days by scanning electron microscopy analysis; type: functional, organism-based; conditions: time 4.0 day
[20] = test system: Echinococcus granulosus; test: Parasiticidal activity against Echinococcus granulosus cyst assessed as formation of dense aggregates at 100 uM incubated for 4 days by scanning electron microscopy; type: functional, organism-based; conditions: time 4.0 day
[21] = test system: Echinococcus granulosus; test: Parasiticidal activity against Echinococcus granulosus protoscolices assessed as death rate at 0.5 uM incubated for 4 days by eosin exclusion test; type: functional; conditions: time 4 day
[22] = test system: Echinococcus granulosus; test: Antiparasitic acitivity against Echinococcus granulosus infected at 25 mg/kg; type: functional
[23] = test system: Echinococcus granulosus; test: Inhibition of Echinococcus granulosus; type: functional
[24] = test system: Echinococcus granulosus; test: Parasiticidal activity against Echinococcus granulosus microcyst infected in kunming mouse assessed as mean cyst weight at 50 mg/kg, ip administered for 28 days; type: functional; conditions: time 28 day
[25] = Neurotoxicity in Kunming mouse assessed as organelles damage at 50 mg/kg, ip administered for 28 days by TEM analysis; type: toxicity, organism-based; conditions: in vivo, 672 h, time 28 day
[26] = test system: Echinococcus granulosus; test: Induction of autophagy in Echinococcus granulosus protoscolices assessed as decrease in p62 expression level at 5 uM measured after 4 days by Western blot analysis; type: functional, organism-based; conditions: time 4.0 day
[27] = Neurotoxicity in Kunming mouse assessed as nuclei damage at 50 mg/kg, ip administered for 28 days by TEM analysis; type: toxicity, organism-based; conditions: in vivo, 672 h, time 28 day
[28] = test system: Echinococcus granulosus; test: Induction of autophagy in Echinococcus granulosus protoscolices assessed as increase in Beclin1 expression level at 5 uM measured after 4 days by Western blot analysis; type: functional, organism-based; conditions: time 4.0 day
[29] = Neurotoxicity in Kunming mouse assessed as effect on heterochromatin at 50 mg/kg, ip administered for 28 days by TEM analysis; type: toxicity, organism-based; conditions: in vivo, 672 h, time 28 day
[30] = test system: Echinococcus granulosus; test: Parasiticidal activity against Echinococcus granulosus microcyst infected in kunming mouse assessed as reduction in cyst weight at 25 mg/kg, ip administered for 28 days relative to control; type: functional; set-up: scale not given: the % may be the effect or the level left; conditions: time 28 day
[31] = Neurotoxicity in Kunming mouse assessed as loosely arranged pyramidal cells in brain at 50 mg/kg, ip administered for 28 days by H and E staining based assay; type: toxicity, organism-based; conditions: in vivo, 672 h, time 28 day
[32] = test system: Echinococcus granulosus; test: Parasiticidal activity against intraperitoneal cystic Echinococcus granulosus infected in Kunming mouse assessed as cell structure destruction at 50 mg/kg, ip administered for 28 days by TEM analysis; type: functional, organism-based; conditions: time 28.0 day
[33] = test system: Echinococcus granulosus; test: Parasiticidal activity against Echinococcus granulosus microcyst infected in kunming mouse assessed as mean cyst weight at 25 mg/kg, ip administered for 28 days; type: functional; conditions: time 28 day
[34] = test system: Echinococcus granulosus; test: Parasiticidal activity against Echinococcus granulosus microcyst infected in kunming mouse assessed as reduction in cyst weight at 50 mg/kg, ip administered for 14 days relative to control; type: functional; set-up: scale not given: the % may be the effect or the level left; conditions: time 14 day
[35] = test system: Echinococcus granulosus; test: Parasiticidal activity against Echinococcus granulosus protoscolices assessed as appearance of dissolved and disappeared matrix at 5 uM incubated for 4 days by H and E staining based assay; type: functional, organism-based; conditions: time 4.0 day
[36] = test system: Echinococcus granulosus; test: Parasiticidal activity against Echinococcus granulosus microcyst infected in kunming mouse assessed as mean cyst weight at 50 mg/kg, ip administered for 14 days; type: functional; conditions: time 14 day
[37] = test system: Echinococcus granulosus; test: Parasiticidal activity against Echinococcus granulosus microcyst infected in kunming mouse assessed as reduction in cyst weight at 25 mg/kg, ip administered for 14 days relative to control; type: functional; set-up: scale not given: the % may be the effect or the level left; conditions: time 14 day
[38] = test system: Echinococcus granulosus; test: Parasiticidal activity against Echinococcus granulosus microcyst infected in kunming mouse assessed as mean cyst weight at 12.5 mg/kg, ip administered for 28 days; type: functional; conditions: time 28 day
[39] = test system: Echinococcus granulosus; test: Parasiticidal activity against Echinococcus granulosus microcyst infected in kunming mouse assessed as reduction in cyst weight at 12.5 mg/kg, ip administered for 28 days relative to control; type: functional; set-up: scale not given: the % may be the effect or the level left; conditions: time 28 day
[40] = test system: Echinococcus granulosus; test: Parasiticidal activity against Echinococcus granulosus microcyst infected in kunming mouse assessed as reduction in cyst weight at 12.5 mg/kg, ip administered for 14 days relative to control; type: functional; set-up: scale not given: the % may be the effect or the level left; conditions: time 14 day
[41] = test system: Echinococcus granulosus; test: Parasiticidal activity against intraperitoneal cystic Echinococcus granulosus infected in Kunming mouse assessed as disappearance of nucleolus at 50 mg/kg, ip administered for 28 days by TEM analysis; type: functional, organism-based; conditions: time 28.0 day
[42] = Half life in Wistar rat at 5 mg/kg, iv by HPLC analysis; type: ADME, organism-based; conditions: in vivo
[43] = test system: Echinococcus granulosus; test: Parasiticidal activity against Echinococcus granulosus protoscolices assessed as appearance of whole body vacuolation at 5 uM incubated for 4 days by H and E based staining assay; type: functional, organism-based; conditions: time 4.0 day
[44] = test system: Echinococcus granulosus; test: Parasiticidal activity against Echinococcus granulosus microcyst infected in kunming mouse assessed as mean cyst weight at 12.5 mg/kg, ip administered for 14 days; type: functional; conditions: time 14 day
[45] = test system: Echinococcus granulosus; test: Induction of autophagy in Echinococcus granulosus protoscolices assessed as increase in ATG5 expression level at 5 uM measured after 4 days by Western blot analysis; type: functional, organism-based; conditions: time 4.0 day
[46] = test system: Echinococcus granulosus; test: Parasiticidal activity against Echinococcus granulosus protoscolices assessed as appearance of disintegrated marginal structure at 5 uM incubated for 4 days by H and E staining based assay; type: functional, organism-based; conditions: time 4.0 day
[47] = test system: Echinococcus granulosus; test: Parasiticidal activity against Echinococcus granulosus microcyst infected in kunming mouse assessed as reduction in cyst weight at 50 mg/kg, ip administered for 28 days relative to control; type: functional; set-up: scale not given: the % may be the effect or the level left; conditions: time 28 day
[48] = Neurotoxicity in Kunming mouse assessed as effect on hippocampal arrangement at 50 mg/kg, ip administered for 28 days by TEM analysis; type: toxicity, organism-based; conditions: in vivo, 672 h, time 28 day
[49] = test system: Echinococcus granulosus; test: Parasiticidal activity against intraperitoneal cystic Echinococcus granulosus infected in Kunming mouse assessed as appearance of vacuole-like structure at 50 mg/kg, ip administered for 28 days by TEM analysis; type: functional, organism-based; conditions: time 28.0 day
[50] = test system: Echinococcus granulosus; test: Parasiticidal activity against Echinococcus granulosus microcyst infected in kunming mouse assessed as mean cyst weight at 25 mg/kg, ip administered for 14 days; type: functional; conditions: time 14 day
[51] = test system: Echinococcus granulosus; test: Potency index, ratio of Albendazole LC50 to test compound LC50 for Parasiticidal activity against Echinococcus granulosus protoscolices; type: functional
[52] = Half life in Wistar rat at 50 mg/kg, ip by HPLC analysis; type: ADME, organism-based; conditions: in vivo
[53] = Neurotoxicity in Kunming mouse assessed as swollen pyramidal cells in brain at 50 mg/kg, ip administered for 28 days by H and E staining based assay; type: toxicity, organism-based; conditions: in vivo, 672 h, time 28 day
[54] = Neurotoxicity in Kunming mouse assessed as deformed pyramidal cells in brain at 50 mg/kg, ip administered for 28 days by H and E staining based assay; type: toxicity, organism-based; conditions: in vivo, 672 h, time 28 day
[55] = Neurotoxicity in Kunming mouse assessed as effect on hippocampal structure at 50 mg/kg, ip administered for 28 days by TEM analysis; type: toxicity, organism-based; conditions: in vivo, 672 h, time 28 day

Cc1nc(NC(=O)c2ccc(CN3CCC(N4CCCCC4)CC3)cc2)cc2c1[nH]c1ccccc12
Activity [1]: Active | Activity [2]: Active | bioavailability [3]: 15.5% | Activity [4]: Dose-Dependent Effect | Activity [5]: Active | Activity [6]: 59.4% | Activity [7]: Active | Activity [8]: Active | Activity [9]: Active | Activity [10]: Active | Cmax [11]: 1120 ng/mL | Activity [12]: Tde | LC50 [13]: 2390 nM | AUC(0-inf) [14]: 1410 ng·h/mL | RatioLC50 [15]: 84 | Activity [16]: >90% | Activity [17]: Active | Activity [18]: Active | Activity [19]: Active | Activity [20]: Active | Activity [21]: >50%

CCCCn1c2ccccc2c2ccnc(-c3ccccc3Cl)c21
Activity [22]: 32.91% | LC50 [23]: 41600 nM

COc1ccc(-c2nc(NC(=O)c3ccc(CN4CCC(O)CC4)cc3)cc3c2[nH]c2ccccc23)cc1
Activity [24]: 12.6 mg | Activity [25]: Non-Toxic | Activity [26]: Active | Activity [1]: Active | Activity [2]: Active | Activity [27]: Non-Toxic | Activity [28]: Active | Activity [29]: Non-Toxic | Activity [30]: 72.05% | bioavailability [3]: 42.4% | Activity [31]: Non-Toxic | Activity [4]: Dose-Dependent Effect | Activity [32]: Active | Activity [5]: Active | Activity [6]: 67.5% | Activity [33]: 15.2 mg | Activity [34]: 73.35% | Activity [8]: Active | Activity [9]: Active | Activity [35]: Active | Activity [36]: 13.7 mg | Activity [37]: 64.79% | Activity [38]: 17.8 mg | Activity [39]: 51.12% | Activity [10]: Active | Cmax [11]: 3040 ng/mL | Activity [40]: 59.41% | Activity [41]: Active | half-life [42]: 3.11 h | Activity [12]: Tde | Activity [43]: Active | LC50 [13]: 1610 nM | Activity [44]: 20.9 mg | Activity [45]: Active | Activity [46]: Active | Activity [47]: 76.87% | AUC(0-inf) [14]: 3000 ng·h/mL | Activity [48]: Non-Toxic | Activity [49]: Active | Activity [50]: 18.1 mg | Activity [16]: >90% | RatioLC50 [51]: 95 | half-life [52]: 9.08 h | Activity [53]: Non-Toxic | Activity [20]: Active | Activity [21]: >50% | Activity [54]: Non-Toxic | Activity [55]: Non-Toxic
